These results are taken from paper PMC4139342, “Pharmacokinetics-Pharmacodynamics Analysis of Bicyclic 4-Nitroimidazole Analogs in a Murine Model of Tuberculosis” (PLoS ONE, 2014).

For this assay, the system named is H37Rv::F420-mutants, F420 deficient (FbiC mutant). The assay is classed as cell-based, M. tuberculosis.

Consider `O=C(CO[C@@H]1COc2nc([N+](=O)[O-])cn2C1)N1CCN(c2ccc(OC(F)(F)F)cc2)CC1` [NI-622], for which the “H37Rv::F420-mutants MIC99” value is over 10 µg/mL.
With `O=[N+]([O-])c1cn2c(n1)OC[C@@H](OCc1ccc(OC(F)(F)F)cc1)C2` [PA-824, (6S)-2-nitro-6-{[4-(trifluoromethoxy)benzyl]oxy}-6,7-dihydro-5H-imidazo[2,1-b][1, 3]oxazine, reference compound], the “H37Rv::F420-mutants MIC99” value is over 10 µg/mL.
On to `O=[N+]([O-])c1cn2c(n1)OC[C@@H](NCCc1ccc(OC(F)(F)F)cc1)C2` [AminoEthyl-824], for which the “H37Rv::F420-mutants MIC99” value is over 10 µg/mL.
Turning to `CC[C@@H]1Oc2nc([N+](=O)[O-])cn2C[C@@H]1OCc1ccc(OC(F)(F)F)cc1` [NI-145], the “H37Rv::F420-mutants MIC99” value is over 10 µg/mL.
As for `O=C(CO[C@@H]1COc2nc([N+](=O)[O-])cn2C1)N1CCN(c2ccc(C(F)(F)F)cn2)CC1` [NI-644], the “H37Rv::F420-mutants MIC99” value is over 10 µg/mL.
To `O=[N+]([O-])c1cn2c(n1)OC[C@@H](NCc1ccc(OC(F)(F)F)c(F)c1)C2` [NI-136] belongs over 10 µg/mL.
To `CC[C@@H]1Oc2nc([N+](=O)[O-])cn2C[C@@H]1NCc1ccc(OC(F)(F)F)c(F)c1` [NI-176] belongs over 10 µg/mL; to `CC[C@H]1Oc2nc([N+](=O)[O-])cn2C[C@@H]1NCc1ccc(OC(F)(F)F)cc1` [NI-182], over 10 µg/mL; to `O=[N+]([O-])c1cn2c(n1)OC[C@@H](NCc1ccc(OC(F)(F)F)c(Cl)c1)C2` [NI-135], over 10 µg/mL.
Take `O=[N+]([O-])c1cn2c(n1)OC[C@@H](NCc1ccc(OC(F)(F)F)c(O)c1)C2` [NI-147]: the “H37Rv::F420-mutants MIC99” value is over 10 µg/mL.
In the case of `O=[N+]([O-])c1cn2c(n1)OC1(CC1)C(OCc1ccc(OC(F)(F)F)cc1)C2` (centres unmarked) [NI-302] it was over 10 µg/mL; in that of `CC[C@@H]1Oc2nc([N+](=O)[O-])cn2C[C@@H]1NCc1ccc(OC(F)(F)F)cc1` [NI-269], over 10 µg/mL; in that of `CC[C@H]1Oc2nc([N+](=O)[O-])cn2C[C@@H]1NCc1ccc(-c2ccc(OC(F)(F)F)cc2)cc1` [NI-297], over 10 µg/mL.
For the compound `O=[N+]([O-])c1cn2c(n1)OC[C@@H](NCc1ccc(OC(F)(F)F)cc1)C2` [Amino-824, ((s)-2-nitro-6,7-dihydro-5H-imidazo[2,1-b][1,3]oxazin-6-yl)-(4-trifluoromethoxybenzyl)amine], the “H37Rv::F420-mutants MIC99” value was over 10 µg/mL.
